Data from US11773188B2, “Chitosan-derived compositions” (Immunophotonics, Inc, priority 2012, dated 2023).
Like-named read-outs stand apart in the source and are kept apart here.

Legend:
EMT6 mammary sarcoma = experiment: Photofrin-based photodynamic therapy and glycated chitosan in EMT6 model; assay type: in vivo, BALB/c mice; conditions: 8 mice
Method: In each model, BALB/c mice were subcutaneously inoculated with 10^6 viable tumor cells into the lower dorsal area. Tumors were treatment size (7 to 8 mm) after 7 days.
In the EMT6 mammary sarcoma model, treatment groups evaluated are detailed in the table below. Photofrin (Mont-Saint-Hilaire, Quebec, Canada) was prepared in 5% sterile dextrose to a 1 mg/mL concentration. A 5 mg/kg dose of photofrin was intravenously administered 24 h prior to irradiation. Animals were shielded from direct light immediately after the photosensitizer injection until 3 days after photodynamic treatment. Mice were restrained anaesthetized in holders exposing their backs during light treatment. Light (630 nm) was delivered through an 8 mm diameter liquid light guide. The power density was set at 100 mW/cm^2, for a total light dose of 60 J/cm^2. Immediately after light irradiation, if applicable, animals were administered a peritumoral dose of 0.5 or 1.5% glycated chitosan.

[1] = system: DMBA-4 transplantable, metastatic mammary tumor; experiment: Different components of laser-assisted immunotherapy in metastatic breast tumor-bearing rats; assay type: in vivo, Wistar Furth rats; conditions: 0.25% ICG injection only, 0.2 mL intratumoral; 12 rats; all rats dying
Method: The laser-assisted immunotherapy system consisted of a near-infrared laser diode laser with a maximum output of 25 W; the laser-absorbing dye, indocyanine green; and the immunoadjuvant, glycated chitosan. When the primary tumor was 0.2 to 0.5 cm^3, treatment was initiated in the tumor-bearing rats. A solution of 0.2 mL of GC and/or ICG was injected into the center of the primary tumor in all groups. In rats receiving laser treatment, the injections occurred 2 h before irradiation, with animals anesthetized and the hair overlaying the tumor clipped. The laser settings were 2 W and 10 min, with the laser fiber tip maintained a distance of 4 mm from the overlying skin and the laser energy directed to the treatment sites through optical fibers. The animals were individually housed following treatment. In the survival studies, the breast or prostate tumor-bearing rats were observed daily and the three dimensions of each tumor were measured weekly. Female Wistar Furth rats (5 to 6 weeks of age, 100 to 125 g) were subcutaneously inoculated with the DMBA-4 transplantable, metastatic mammary tumor (10^5 viable tumor cells) into one inguinal fat pad of each rat. The primary tumor emerged 7 to 10 days after inoculation. […] The survival rate and primary and metastatic tumor profiles were determined for the individual components and various combinations of the components.

[2] = system: Line 1 lung adenocarcinoma; conditions: no GC, 8 mice
Text: To evaluate photodynamic therapy as a the method for direct tumor destruction in combination with glycated chitosan, a combination of photofrin- and meso-substituted tetra (meta-hydroxy-phenyl) chlorin-(mTHPC) based photodynamic therapy and glycated chitosan injection was been studied in the EMT6 mammary sarcoma and Line 1 lung adenocarcinoma mouse models, respectively. In each model, BALB/c mice were subcutaneously inoculated with 10^6 viable tumor cells into the lower dorsal area. Tumors were treatment size (7 to 8 mm) after 7 days.
A 0.1 mg/kg dose of mTHPC was intravenously administered 24 h prior to irradiation. Animals were shielded from direct light immediately after the photosensitizer injection until 3 days after photodynamic treatment. Mice were restrained anaesthetized in holders exposing their backs during light treatment. A 652 nm light from a 0.25 W diode laser was delivered through an 8 mm diameter liquid light guide. The power density was set at 110 mW/cm^2, fora total light dose of 30 J/cm^2.

breast cancer = system: breast cancer
Method: In one exemplary clinical study, two breast cancer patients received cyclophosphamide weekly (after inCVAX treatment) at a dose of between 150 and 200 mg/m^2. […] The patients continued to receive the low dose chemotherapy.

[3] = weekly 150-200 mg/m^2 after inCVAX treatment, two breast cancer patients

## Photofrin
EMT6 mammary sarcoma; Non-Thermal Laser + Photofrin 5 mg/kg i.v. 24 h before 630 nm light 60 J/cm^2
  Number of Long-Term Surviving Mice: 3
EMT6 mammary sarcoma; Non-Thermal Laser + Photofrin 5 mg/kg i.v., no GC
  Long-term Survival Rate: 37.5%

## CC1(C)C(/C=C/C=C/C=C/C=C2\N(CCCCS(=O)(=O)O)c3ccc4ccccc4c3C2(C)C)=[N+](CCCCS(=O)(=O)[O-])c2ccc3ccccc3c21 [indocyanine green]
[1]
  survival after single component treatment: average survival times similar to the control group

## Oc1cccc(-c2c3nc(c(-c4cccc(O)c4)c4ccc([nH]4)c(-c4cccc(O)c4)c4nc(c(-c5cccc(O)c5)c5ccc2[nH]5)CC4)C=C3)c1 [mTHPC, meso-substituted tetra (meta-hydroxy-phenyl) chlorin]
[2]; Laser (652 nm, 30 J/cm^2) + mTHPC 0.1 mg/kg i.v. 24 h before
  Number of Long-Term Surviving Mice: 0
[2]; Laser + mTHPC 0.1 mg/kg i.v.
  Long-term Survival Rate: 0.0%

## CC(=O)O[C@H]1C(=O)[C@@]2(C)[C@H]([C@H](OC(=O)c3ccccc3)[C@]3(O)C[C@H](OC(=O)[C@H](O)[C@@H](NC(=O)c4ccccc4)c4ccccc4)C(C)=C1C3(C)C)[C@]1(OC(C)=O)CO[C@@H]1C[C@@H]2O [Paclitaxel]
Breast cancer; weekly 75 mg/m^2 after response to cyclophosphamide slowed
  tumor response: the response was very good with shrinking tumors

## O=P1(N(CCCl)CCCl)NCCCO1 (centres unmarked) [cyclophosphamide]
Breast cancer; [3]
  adverse reactions: minimal adverse reactions
  tumor response: responded well to the treatment with tumor shrinkage
